The values below are quoted from earlier work in PubChem BioAssay AID1259410 (Chemical Carcinogenesis Research Information System (CCRIS), 2018).

For this series, the system named is rodent tumor promotion studies, tumor incidence. In words: CCRIS tumor promotion studies. Conditions: Route [Carcinogen]: DERMAL, Route [Promoter]: DERMAL, Species: MOUSE.

SMILES strings stand for the structures.

As to `CCCCCCCCCCCCCC(=O)O[C@@H]1[C@@H](C)[C@@]2(O)[C@@H](C=C(CO)C[C@]3(O)C(=O)C(C)=C[C@@H]23)[C@@H]2C(C)(C)[C@]12OC(C)=O`, the outcome reads like this: (Carcinogen: 15,16-DIHYDRO-11-METHYLCYCLOPENTA[A]PHENANTHREN-17-ONE, 892-17-1, Doses [Carcinogen]: 1632 NMOL IN 100 µL TOLUENE ONCE, Doses [Promoter]: 0, 2 UG IN 50 µL ACETONE 2/WK FOR 19 WK BEGINNING 1 WK POST CARCINOGEN TREATMENT (STUDY DURATION: 20 WK), Strain/Sex: SKH/HR-1/MALE) “skin: papilloma”; (Carcinogen: (+/-)-R,11-T-12-DIHYDROXY-T-13,14-EPOXY-11,12,13,14-TETRAHYDRODIBENZO[A,L]PYRENE, 159812-26-7, Doses [Carcinogen]: 1.33, 4, 12 NMOL IN 100 ML ACETONE ONCE, Doses [Carcinogen]: 1.33, 4, 12 NMOL IN 100 ML ACETONE ONCE, Doses [Promoter]: 1.62 NMOL IN 100 ML ACETONE 2/WK FOR 28 WK BEGINNING 1 WK POST CARCINOGEN DOSE (STUDY DURATION: 30 WK), Strain/Sex: SENCAR/FEMALE) “skin: tumor”; (Carcinogen: (+/-)-R-11,T-12-DIHYDROXY-C-13,14-EPOXY-11,12,13,14-TETRAHYDRODIBENZO[A,L]PYRENE, 159812-27-8, Doses [Carcinogen]: 1.33, 4, 12 NMOL IN 100 ML ACETONE ONCE, Doses [Carcinogen]: 1.33, 4, 12 NMOL IN 100 ML ACETONE ONCE, Doses [Promoter]: 1.62 NMOL IN 100 ML ACETONE 2/WK FOR 28 WK BEGINNING 1 WK POST CARCINOGEN DOSE (STUDY DURATION: 30 WK), Strain/Sex: SENCAR/FEMALE) “skin: tumor”; (Carcinogen: (+/-)-TRANS-1,2-DIHYDRO-1,2-DIHYDROXY-5-METHYLCHRYSENE, 96741-20-7, Doses [Carcinogen]: 33, 100 NMOL IN 0.1 ML ACETONE ONCE, Doses [Promoter]: 2.5 UG IN 0.1 ML ACETONE 3/WK FOR 25 WK BEGINNING 10 D POST INITIATION (STUDY DURATION: 27 WK), Strain/Sex: CD-1/FEMALE) “skin: tumors”; (Carcinogen: (+/-)-TRANS-1,2-DIHYDROXY-ANTI-3,4-EPOXY-1,2,3,4-TETRAHYDRO-5-METHYLCHRYSENE, 96790-39-5, Doses [Carcinogen]: 33, 100 NMOL IN 0.1 ML ACETONE ONCE, Doses [Promoter]: 2.5 UG IN 0.1 ML ACETONE 3/WK FOR 25 WK BEGINNING 10 D POST INITIATION (STUDY DURATION: 27 WK), Strain/Sex: CD-1/FEMALE) “skin: tumors”; (Carcinogen: (+/-)-TRANS-7,8-DIHYDRO-7,8-DIHYDROXY-5-METHYLCHRYSENE, 96741-21-8, Doses [Carcinogen]: 33, 100 NMOL IN 0.1 ML ACETONE ONCE, Doses [Promoter]: 2.5 UG IN 0.1 ML ACETONE 3/WK FOR 25 WK BEGINNING 10 D POST INITIATION (STUDY DURATION: 27 WK), Strain/Sex: CD-1/FEMALE) “skin: tumors”. Further, the outcome is listed as “skin: tumor” (Carcinogen: ANTI-1,2-DIHYDROXY-3,4-EPOXY-1,2,3,4-TETRAHYDRO-5,6-DIMETHYLCHRYSENE, 139347-89-0, Doses [Carcinogen]: 33, 100, 400 NMOL IN 0.1 ML ACETONE ONCE, Doses [Carcinogen]: 33, 100, 400 NMOL IN 0.1 ML ACETONE ONCE, Doses [Promoter]: 0, 2.5 UG IN 0.1 ML ACETONE 3/WK FOR 20 WK BEGINNING 10 D POST CARCINOGEN DOSE (STUDY DURATION: 20 WK), Strain/Sex: CD-1/FEMALE); “skin: tumor” (Carcinogen: ANTI-4,3-DIHYDROXY-2,1-EPOXY-4,3,2,1-TETRAHYDROBENZO[C]PHENANTHRENE, 75443-72-0, Doses [Carcinogen]: 100, 400 NMOL IN 0.1 ML ACETONE ONCE, Doses [Promoter]: 0, 2.5 UG IN 0.1 ML ACETONE 3/WK FOR 20 WK BEGINNING 10 D POST CARCINOGEN DOSE (STUDY DURATION: 20 WK), Strain/Sex: CD-1/FEMALE); “skin: papilloma, carcinoma” (Carcinogen: BENZO[A]PYRENE, 50-32-8, Doses [Carcinogen]: 0, 2.52, 12.6, 50.5, 101 UG IN ACETONE ONCE, Doses [Carcinogen]: 0, 2.52, 12.6, 50.5, 101 UG IN ACETONE ONCE, Doses [Promoter]: 0, 2 UG IN ACETONE 2/WK FOR 52 WK (STUDY DURATION: 1 YR), Strain/Sex: SENCAR/FEMALE); “skin: papilloma, carcinoma” (Carcinogen: BENZO[A]PYRENE, 50-32-8, Doses [Carcinogen]: 0, 2.52, 12.6, 50.5, 101 UG IN ACETONE ONCE, Doses [Carcinogen]: 0, 2.52, 12.6, 50.5, 101 UG IN ACETONE ONCE, Doses [Promoter]: 0, 2 UG IN ACETONE 2/WK FOR 52 WK (STUDY DURATION: 1 YR), Strain/Sex: SENCAR/MALE); “skin: tumor” (Carcinogen: BENZO[A]PYRENE, 50-32-8, Doses [Carcinogen]: 20, 100 NMOL IN 100 µL ACETONE ONCE, Doses [Promoter]: 3.24 NMOL/100 µL ACETONE 2/WK BEGINNING 2 WK POST CARCINOGEN DOSE AND CONTINUING FOR 24 WK (STUDY DURATION: 27 WK), Strain/Sex: SENCAR/FEMALE); “skin: tumor” (Carcinogen: BENZO[A]PYRENE, 50-32-8, Doses [Carcinogen]: 33.3, 100, 300 NMOL IN 100 µL ACETONE ONCE, Doses [Carcinogen]: 33.3, 100, 300 NMOL IN 100 µL ACETONE ONCE, Doses [Promoter]: 3.24 NMOL/100 µL ACETONE ONCE 1 WK POST CARCINOGEN DOSE THEN 2/WK BEGINNING 3 WK LATER AND CONTINUING FOR 11 WK (STUDY D, Strain/Sex: SENCAR/FEMALE).
